Data as given in the supplement of paper PMC10307832.

Legend:
Experiment in all cases: relative viability (nuclei count vs DMSO), 5 days (fraction); higher = more cells survive
[1] = compound: C1CNCCC1C2=CC(=NN2)C3=CC=NC=C3 + C[C@@H](Oc1cc(-c2cnn(C3CCNCC3)c2)cnc1N)c1c(Cl)ccc(F)c1Cl [Crizotinib] (partner 1 µM)
In short: (§1)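 Lung cancer cell lines were pin-tool dosed in 1536-well plates on the day after seeding, with either a lone drug or a fixed anchor-drug dose plus five library-drug doses (not always all listed) in √10 steps. Nuclei were counted on 4× images after 5 days. Relative viability is the ratio of treated-well to vehicle-well nuclei counts, with each value a median of duplicate plates.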

[2] = compound: C[C@@H](N)c1ccc(C(=O)Nc2ccnc3[nH]ccc23)cc1 + CS(=O)(=O)CCNCc1ccc(-c2ccc3ncnc(Nc4ccc(OCc5cccc(F)c5)c(Cl)c4)c3c2)o1 [Lapatinib] (partner 2 µM)
In short: as §1

Tanzisertib + Linsitinib = compound: O[C@H]1CC[C@H](Nc2ncc3nc(Nc4c(F)cc(F)cc4F)n([C@H]4CCOC4)c3n2)CC1 [Tanzisertib] + C[C@]1(O)C[C@@H](c2nc(-c3ccc4ccc(-c5ccccc5)nc4c3)c3c(N)nccn32)C1 [Linsitinib] (partner 1 µM)
In short: as §1

Tanzisertib + Tozasertib = compound: O[C@H]1CC[C@H](Nc2ncc3nc(Nc4c(F)cc(F)cc4F)n([C@H]4CCOC4)c3n2)CC1 [Tanzisertib] + Cc1cc(Nc2cc(N3CCN(C)CC3)nc(Sc3ccc(NC(=O)C4CC4)cc3)n2)n[nH]1 [Tozasertib] (partner 0.1 µM)
In short: as §1

Cell Line	relative viability ([1]; first compound 0.08 µM)	relative viability ([1]; first compound 0.8 µM)	relative viability ([1]; first compound 2.53 µM)	relative viability ([1]; first compound 8 µM)	relative viability ([2]; first compound 0.04 µM)	relative viability ([2]; first compound 0.1265 µM)	relative viability ([2]; first compound 0.4 µM)	relative viability ([2]; first compound 1.265 µM)	relative viability ([2]; first compound 4 µM)	relative viability (Tanzisertib + Linsitinib; first compound 0.08 µM)	relative viability (Tanzisertib + Linsitinib; first compound 0.253 µM)	relative viability (Tanzisertib + Linsitinib; first compound 0.8 µM)	relative viability (Tanzisertib + Linsitinib; first compound 2.53 µM)	relative viability (Tanzisertib + Linsitinib; first compound 8 µM)	relative viability (Tanzisertib + Tozasertib; first compound 0.08 µM)	relative viability (Tanzisertib + Tozasertib; first compound 0.253 µM)	relative viability (Tanzisertib + Tozasertib; first compound 0.8 µM)	relative viability (Tanzisertib + Tozasertib; first compound 2.53 µM)	relative viability (Tanzisertib + Tozasertib; first compound 8 µM)
LU99A	0.5	0.586	0.596	0.558	1.1	1.09	1.13	0.753	0.906	0.557	0.481	0.505	0.523	0.537	0.256	0.284	0.276	0.259	0.298
LXF-289	0.842	0.88	0.801	0.837	0.968	0.891	0.959	1.02	0.851	1.04	0.916	1.04	0.995	1.04	0.236	0.165	0.149	0.17	0.147
NCI-H23	0.431	0.499	0.499	0.518	0.945	1.27	1.18	–	0.924	0.614	0.497	0.535	0.627	0.638	0.369	0.362	0.306	0.29	0.293
NCI-H322M	0.851	0.875	0.878	0.955	0.807	0.63	0.665	–	0.824	1	0.891	0.795	0.88	1.02	0.473	0.468	0.498	0.487	0.499
NCI-H358	0.479	0.526	0.633	0.474	0.482	0.363	0.435	0.465	0.366	0.771	0.662	0.76	0.782	0.566	0.119	0.0917	0.106	0.107	0.117
NCI-H460	0.369	1.02	1.02	0.996	0.974	1.1	0.984	1.12	1.03	0.982	0.706	0.738	0.783	0.525	0.548	0.376	0.457	0.382	0.099
NCI-H520	0.742	0.921	0.727	0.736	1.08	0.953	0.949	0.742	1.03	1.19	1.11	0.941	0.832	0.927	0.411	0.464	0.403	0.428	0.414
NCI-H596	0.984	1.15	1.04	0.991	1.29	1.08	1.03	0.955	1.07	1.19	0.956	1.11	1.12	1.02	1.02	0.809	0.971	1.06	0.715
NCI-H647	1.05	1.08	1.01	1.06	0.961	1.07	1.16	1.06	0.901	1.17	1.29	1.12	1.24	1.3	0.283	0.269	0.281	0.388	0.226
NCI-H650	0.681	0.802	0.929	0.489	0.626	0.837	0.859	–	0.696	0.949	0.918	0.92	1.2	0.366	0.761	0.796	0.776	0.768	0.65
NCI-H661	1.15	0.96	1.05	0.902	0.503	0.587	0.607	0.401	0.449	0.657	0.495	0.619	0.477	0.599	0.361	0.345	0.331	0.35	0.359
NCI-H727	0.718	1.1	1.05	0.776	0.863	0.957	1.02	0.513	0.989	0.358	0.32	0.322	0.38	0.249	0.702	0.714	0.699	0.663	0.66
NCI-H838	0.844	0.924	0.954	0.796	0.683	0.922	0.708	0.445	0.427	1.02	0.997	1	1.01	0.919	0.317	0.283	0.301	0.249	0.237
NCI-H1355	1.02	1.03	1.12	1.13	0.973	0.972	1.03	–	0.924	0.785	0.826	0.923	0.858	0.777	0.526	0.562	0.576	0.528	0.405
NCI-H1437	0.866	0.967	0.929	0.883	0.842	0.782	0.825	0.772	0.737	1.14	0.981	1.11	1.13	0.971	0.451	0.394	0.407	0.381	0.384
NCI-H1651	0.825	0.832	0.872	0.854	1.04	0.859	0.975	0.784	0.967	0.956	0.837	1.05	1.05	0.854	0.711	0.707	0.637	0.689	0.557
NCI-H1666	0.762	0.935	0.989	0.902	0.724	0.618	0.967	0.835	0.928	0.834	0.862	0.832	0.777	0.933	0.609	0.698	0.611	0.656	0.592

Cell Line	relative viability ([1]; first compound 0.08 µM)	relative viability ([1]; first compound 0.8 µM)	relative viability ([1]; first compound 2.53 µM)	relative viability ([1]; first compound 8 µM)	relative viability ([2]; first compound 0.04 µM)	relative viability ([2]; first compound 0.1265 µM)	relative viability ([2]; first compound 0.4 µM)	relative viability ([2]; first compound 1.265 µM)	relative viability ([2]; first compound 4 µM)	relative viability (Tanzisertib + Linsitinib; first compound 0.08 µM)	relative viability (Tanzisertib + Linsitinib; first compound 0.253 µM)	relative viability (Tanzisertib + Linsitinib; first compound 0.8 µM)	relative viability (Tanzisertib + Linsitinib; first compound 2.53 µM)	relative viability (Tanzisertib + Linsitinib; first compound 8 µM)	relative viability (Tanzisertib + Tozasertib; first compound 0.08 µM)	relative viability (Tanzisertib + Tozasertib; first compound 0.253 µM)	relative viability (Tanzisertib + Tozasertib; first compound 0.8 µM)	relative viability (Tanzisertib + Tozasertib; first compound 2.53 µM)	relative viability (Tanzisertib + Tozasertib; first compound 8 µM)
NCI-H1734	0.663	0.687	0.653	0.654	1.02	1.15	1.01	–	1.12	1.09	0.902	0.861	0.871	0.87	0.267	0.282	0.254	0.251	0.236
NCI-H1755	0.967	0.836	0.887	0.776	0.874	1	1.05	0.705	0.685	0.989	0.997	0.975	0.953	0.892	0.58	0.618	0.561	0.582	0.533
NCI-H1915	0.88	0.906	0.855	0.909	0.908	0.972	0.966	–	0.848	1.07	1.14	1.08	1.01	1.11	0.401	0.457	0.373	0.384	0.322
NCI-H1944	1.06	1.08	1.1	1.08	0.759	0.841	0.769	–	0.699	1.25	1.18	1.12	1.12	0.878	0.289	0.25	0.237	0.223	0.242
NCI-H1975	0.988	1.05	0.963	0.889	0.833	0.765	0.922	0.88	0.546	1.1	0.979	0.993	1.07	0.873	0.845	0.762	0.838	0.668	0.458
NCI-H1993	0.867	0.876	0.767	0.896	0.791	0.858	–	0.776	0.87	0.759	0.681	0.754	0.768	0.677	0.614	0.593	0.592	0.617	0.548
NCI-H2009	0.96	1.08	1.08	1.03	0.682	0.736	0.916	0.114	0.747	1.22	1.17	1.17	1.26	1.21	0.804	0.72	0.775	0.754	0.661
NCI-H2023	0.427	0.688	0.738	0.709	0.844	0.737	1.15	0.0713	0.99	0.702	0.589	0.759	0.621	0.56	0.479	0.431	0.409	0.321	0.2
NCI-H2085	0.976	0.938	0.973	0.825	0.841	0.729	0.872	0.546	0.799	1.03	0.808	0.905	0.826	0.83	0.9	0.822	0.914	0.644	0.59
NCI-H2087	0.837	1.02	0.976	0.666	0.85	1.22	0.831	0.148	0.825	1.12	1.07	0.98	1.24	0.957	0.238	0.287	0.277	0.209	0.202
NCI-H2126	0.952	1.05	1.01	0.979	0.825	0.866	0.764	0.859	0.966	0.814	0.77	0.712	0.726	0.736	0.91	0.872	0.85	0.813	0.859
NCI-H2228	0.566	0.428	0.486	0.482	1.18	1.09	1.2	1.17	0.868	0.877	0.691	0.573	0.553	0.509	0.333	0.385	0.241	0.254	0.238
NCI-H2347	0.681	0.676	0.939	0.781	0.833	0.959	0.933	0.347	0.868	1.08	0.973	1.08	1.09	1.3	0.569	–	0.664	0.682	0.365
NCI-H2405	0.87	0.777	0.873	0.825	–	1.18	1.05	0.487	0.351	0.954	0.881	0.968	0.904	0.702	0.784	0.744	0.844	0.823	0.73
NCI-H3122	0.303	0.265	0.255	0.283	0.966	1.04	1.08	0.875	0.981	1.03	1.05	1.09	0.898	1.03	0.465	0.393	0.497	0.399	0.377
PC-3 [JPC-3]	0.941	1.07	0.971	0.953	0.538	0.545	0.505	0.529	0.536	1.05	0.957	0.963	0.963	0.899	0.903	0.99	0.943	0.852	0.781
PC-14	0.917	0.874	1.04	0.835	0.292	0.344	0.295	0.271	0.329	1	0.987	0.885	0.942	0.572	0.652	0.605	0.54	0.537	0.499
